From ChEMBL document CHEMBL1151370, “Marine animal biosynthetic constituents for cancer chemotherapy” (1981) come the findings set out here.

In the test the test system is P388. Kind of test: Antineoplastic activity against mouse P388 cells. The test is classed as functional.

On to `CC(C)C[C@@H]1NC(=O)[C@@H]2CCCN2C(=O)[C@H](C(C)C)NC(=O)c2csc(n2)CNC(=O)c2csc(n2)[C@H](CCC(N)=O)NC1=O` [DOLASTATIN 3], for which the ED50 worked out at 2.7 ×10⁻⁷ ug/ml.
